Experimental data as given in article PMC7504215, “Copper(II) Complexes with Mixed Heterocycle Ligands as Promising Antibacterial and Antitumor Species” (Molecules, 2020).
Like-named read-outs stand apart in the source and are kept apart here.

Assays:
[1] = tested on: λ-DNA/EB adduct; assay: Quenching of fluorescence of λ-DNA/ethidium bromide adduct; assay type: binding, bacteriophage lambda; conditions: λ-DNA pre-treated with EB, increments of complex, pH 8
Experimental: To determine whether compounds have the capacity to interact with DNA, 48,500 base-pairs of genomic DNA from bacteriophage lambda (λ-DNA, Promega. Madison USA) was used. A stock solution of 10 µM λ-DNA (base-pair concentration) was prepared in 10 mM Tris/HCl buffer containing 1 mM NaCl, pH 8.
The binding of compounds to λ-DNA was assayed by monitoring the quenching of fluorescence emitted by λ-DNA/ethidium bromide (EB) adduct (λexcit = 510, maximum emission at λem = 601). The λ-DNA solution was added to the EB solution, prepared in the same buffer, then increasing concentrations of compounds were added to EB-DNA [2, 48]. The fluorescence spectra were recorded in the range of 550–750 nm using a Thermo Fischer Scientific Varioskan Flash spectral scanning multimode reader (Vantaa, Finland). The spectra were recorded in suitable plates using 5 nm excitation and emission slits for all measurements.

[2] = tested on: E. coli 5 ESBL; assay: MBEC assay, micro-titer method (biofilm); assay type: cell-based, Escherichia coli
Experimental: (§1) The antibacterial assays were performed on Gram-negative (Escherichia coli ATCC 25922, E. coli 5, Pseudomonas aeruginosa ATCC 27853, P. aeruginosa ATCC 9027) and Gram-positive (Staphylococcus aureus ATCC 25923, S. aureus ATCC 6538, MRSA (Meticillin-resistant S. aureus) 388, ATCC, American Type Culture Collection) bacterial strains. Microbial suspensions (1.5 × 10^8 CFU/mL; colony forming units (CFU)) corresponding to 0.5 McFarland density obtained from 15 to 18-h bacterial cultures developed on solid media were used. The antimicrobial activity was tested on Mueller–Hinton agar medium.
(§2) The assessment of the complexes’ influence on the microbial ability to colonize an inert substratum with the establishment of the minimal biofilm eradication concentration (MBEC) was performed by the micro-titer method, following previously described protocols. The absorbance at 490 nm was measured with an Apollo LB 911ELISA (Berthold Technologies GmbH & Co. KG, Waltham, MA, USA) reader. All experiments were performed in triplicates.

[3] = tested on: E. coli 25922; assay: MBEC assay, micro-titer method (biofilm); assay type: cell-based, Escherichia coli
Experimental: as §1, §2

[4] = tested on: plasmid pRSII325; assay: Nuclease activity assay, gel electrophoresis; assay type: biochemical; conditions: for Nuclease activity in the presence of H2O2: 3 µM compound + 1 mM H2O2, 1 h at 37 °C; for Nuclease activity in the presence of ascorbate: 3 µM compound + 1 mM ascorbate; for Nuclease activity in the presence of ascorbate / Nuclease activity, compound alone: 1 h at 37 °C; for Nuclease activity, compound alone: 3 µM compound, no activating agent
Experimental: The nuclease activity of the compounds was determined using plasmid pRS325II DNA, which was a gift from Steven Haase (Addgene plasmid #35467, 6835 base pairs). The plasmid was amplified in Escherichia coli by transforming One Shot® TOP10 chemically competent E. coli from Invitrogen, Thermo Fisher Scientific (Vilnius, Lithuania). Plasmid was isolated from positive colonies using a PureLink™ HiPure Plasmid Miniprep Kit from Invitrogen, Thermo Fisher Scientific (Vilnius, Lithuania). Plasmid (200 ng/sample) was exposed to 3 µM compounds in the presence of 1 mM hydrogen peroxide (to exploit the Cu(II/III) redox couple) or 1 mM ascorbic acid (to exploit the Cu(I/II) redox couple). The DNA cleavage experiments for the complexes were done in a 9/1 (v/v) ratio of 50 mM Tris-HCl buffer, pH 8, and DMSO. The samples were incubated for 1 h at 37 °C before a bromophenol blue/xylene cyanol-based loading dye (Roth, Germany) was added to the samples. Partial cleavage of the plasmid to linear form was done with the restriction enzyme EcoRI (Promega, USA) by incubation for 5 min at 37 °C. The samples were loaded on a 1% (w/v) agarose gel containing 1 μg/mL EtBr in 1 × TAE (Tris–acetic acid–EDTA) buffer. Electrophoresis was performed at 100 V for 45 min in 1 × TAE buffer. The images of the fluorescent ethidium bromide-stained gels were captured using a gel documentation system (Doc-Print II, Vilber Lourmat, France). The cleavage experiments were done six times, with similar results. One representative gel is shown.

[5] = tested on: normal BJ cell (human fibroblast); assay: MTT cell viability assay; assay type: cell-based
Experimental: The cytotoxicity of ligand and copper(II) complexes was tested on normal BJ cell as well as on B16 (melanoma) tumor cells, which were grown for 48 h in culture medium containing the tested complexes in 0–25 μg/mL concentration range.
Human fibroblast cells (BJ-ATCC CRL-2522, Manassas, VA, USA) were grown in minimal essential medium (MEM) supplemented with 2 mM L-Glutamine, 10% fetal calf serum (FCS), 100 units/mL of penicillin and 100 µg/mL of streptomycin at 37 °C in a humidified incubator under an atmosphere containing 5% CO2. Mouse melanoma cells (B16-ATCC CRL-6475, Manassas, VA, USA) were grown in DMEM (Dulbecco’s Modified Eagle Medium) supplemented with similar reagents as MEM. All cell cultivation media and reagents were purchased from Biochrom AG (Berlin, Germany) and Sigma-Aldrich (Darmstadt, Germany).
Cell viability was evaluated using 3-(4,5-dimethylthiazol-2-yl)-2,5-diphenyltetrazolium bromide (MTT) assay, as described previously. First, the cells were seeded in 96-well plates (20,000 cells/well) and cultured for 24 h in medium. After overnight incubation, the medium was changed and the investigated sample in concentration varying from […] was added for 24 h. The negative control was represented by cells cultivated in medium without the investigated compounds. Following incubation, the medium was changed and the MTT solution was added to each well to a final concentration of 1 mg/mL and incubated for additional 4 h, at 37 °C. Finally, the medium was collected and DMSO was used to dissolve the insoluble formazan product. The absorbance of the samples was recorded at 570 nm using a plate reader Mithras 940 (Berthold). The data were corrected for the background and the percentage of viable cells was obtained using the equation:Cell viability = [(A570 of treated cells)/(A570 of untreated cells)] × 100%
The half-maximal inhibitory concentration (IC50) was determined by fitting the data with a logistical sigmoidal equation using the software Origin 8.1 from Microcal Inc. (Los Angeles, CA, USA).

[6] = tested on: E. coli 5 ESBL; assay: MIC assay, liquid medium microdilution (planktonic growth); assay type: cell-based, Escherichia coli; conditions: E. coli 5 ESBL, 24 h at 37 °C
Experimental: as §1
The quantitative assay of the antimicrobial activity was performed by the liquid medium microdilution method, in 96-well multi-well plates, to establish the minimal inhibitory concentration (MIC). For this purpose, serial two-fold dilutions of the compounds ranging between 1.000 and 1.95 μg/mL were performed in a 200 μL volume of broth and each well was seeded with 50 μL microbial inoculums. Sterility control (wells containing only culture medium) and culture controls (wells containing culture medium seeded with the microbial inoculum) were used. The influence of the DMSO solvent was also quantified in a series of wells containing DMSO, diluted accordingly with the dilution scheme used for the complexes. The plates were incubated for 24 h at 37 °C, and MIC values were considered as the lowest concentration of the tested compound that inhibited the visible growth of the microbial overnight cultures.

Compound | Fluorescence of λ-DNA/EB adduct on adding complex [1] | MBEC value [2] | MBEC value [3] | Nuclease activity in the presence of H2O2 [4] | Nuclease activity in the presence of ascorbate [4] | Nuclease activity, compound alone [4] | IC50 BJ Cells 24 h ([5]; BJ cells, 24 h, MTT) | IC50 ([5]; BJ cells, 24 h, MTT, read-out: IC50 BJ Cells 24 h) | IC50 BJ Cells 48 h ([5]; BJ cells, 48 h, MTT) | IC50 ([5]; BJ cells, 48 h, MTT, read-out: IC50 BJ Cells 48 h) | MIC [6] | Viability of BJ cells ([5]; 48 h, highest tested concentration (0–25 μg/mL range))
Cc1cc(-c2ccccc2)nc2ncnn12.[Cu+2].[O-][Cl+3]([O-])([O-])[O-].[O-][Cl+3]([O-])([O-])[O-].c1cnc2c(c1)ccc1cccnc12.c1cnc2c(c1)ccc1cccnc12 [(2), [Cu(phen)2(pmtp)](ClO4)2] | the fluorescence intensity decreased | 0.05 mM | 0.02 mM | led to DNA degradation | led to DNA degradation | caused plasmid relaxation to the NC form | 5.98 µg/mL | 7 µM | 3.30 µg/mL | 4 µM | 50 µM | –
Cc1cc(-c2ccccc2)nc2ncnn12.[Cu+2].[O-][Cl+3]([O-])([O-])[O-].[O-][Cl+3]([O-])([O-])[O-].c1ccc(-c2ccccn2)nc1.c1ccc(-c2ccccn2)nc1 [(1), [Cu(bpy)2(pmtp)](ClO4)2] | the fluorescence intensity decreased | 0.40 mM | 0.40 mM | led to DNA degradation | led to DNA degradation | caused plasmid relaxation to the NC form | – | – | – | – | 400 µM | 70%
